In the RepoRT retention time repository (doi:10.1021/acs.analchem.2c02893):

Assay: RP, Thermo Scientific Acclaim RSLC 120 C18, 100 × 2.1 mm, 2.2 µm, 30 °C, 0.2 mL/min, estimated dead time 1.1 min; A: 90% water + 10% methanol + 0.01% formic acid + 5 mM ammonium formate, pH 3.61; B: methanol + 0.01% formic acid + 5 mM ammonium formate, pH 3.61; gradient (min/%B) 0/1 1/1 2/39 13/99.9 15/99.9 15.1/1 20.1/1
Settings: stereoisomer not certain

| SMILES | LC retention time [min] |
| --- | --- |
| CCCc1nn(C)c2c(=S)nc(-c3cc(S(=O)(=O)N4CCN(CC)CC4)ccc3OCC)[nH]c12 [Sildenafil Thiohomo] | 10.6 |
| O=C(O)COCC[N+]1([O-])CCN(C(c2ccccc2)c2ccc(Cl)cc2)CC1 (centres undefined) [Cetirizine-N-Oxide] | 9.13 |
| COP(=O)(OC)Oc1ccc(SC)c(C)c1 [Fenthion-oxon] | 8.82 |
| COc1cc(CCN)c(OC)cc1Cl [2C-C] | 5.28 |
| C[N+]1(CCC(O)(c2ccccc2)c2cccs2)CCOCC1 (centres undefined) [Tiemonium] | 5.06 |
| O=C(Oc1cccc2ccccc12)c1cn(Cc2ccc(F)cc2)c2ccccc12 [FDU-PB-22] | 12.6 |
| COC(=O)C(Cc1ccccc1)NC(=O)C(CC(=O)O)NCCC(C)(C)C (centres undefined) [Neotam] | 8.83 |
| Cn1c(-c2ccccc2)cc(-c2ccccc2)[n+]1C [Difenzoquat (Ion 1+)] | 5.21 |
| CC(N)Cc1cccc(C(F)(F)F)c1 (centres undefined) [Fenfluramine-Nor] | 5.91 |
| CC(C)NC(=O)c1ccccc1O [Salicylamide-N-Isopropyl] | 7.14 |
| CN1CCN(C(=O)OC2c3nccnc3C(=O)N2c2ccc(Cl)cn2)CC1 (centres undefined) [Zopiclone] | 4.89 |
| N#Cc1nn(-c2c(Cl)cc(C(F)(F)F)cc2Cl)c(N)c1S(=O)(=O)C(F)(F)F [Fipronil-sulfone] | 11 |
| CCOP(=S)(OCC)Oc1cc(-c2ccccc2)on1 [Isoxathion] | 11.3 |
| CCOP(=O)(SC(C)CC)N1CCSC1=O (centres undefined) [Fosthiazate] | 7.73 |
| CCNC1C2CCC(C2)C1c1ccccc1 (centres undefined) [Fencamfamine] | 6.08 |
| Cc1ncc([N+](=O)[O-])n1CCCO [Ternidazole] | 4.21 |
| CC1COc2ccccc2N1C(=O)C(Cl)Cl (centres undefined) [Benoxacor] | 8.87 |
| CCOC(=O)c1ncn2c1CN(C)C(=O)c1cc(F)ccc1-2 [Flumazenil] | 6.04 |
| CNC(=O)Oc1cc(C)cc(C)c1 [XMC (Group of peaks!)] | 7.78 |
| CCCCCCCCCCCC[N+](C)(C)[O-] [N,N-Dimethyldodecylamine N-oxide] | 11.2 |
| COP(=O)(OC)Oc1ccc([N+](=O)[O-])cc1 [Paraoxon-methyl] | 6.36 |
| CN(C)CCC=C1c2ccccc2CSc2ccccc21 [Dosulepin] | 7.61 |

| SMILES | LC retention time [min] |
| --- | --- |
| CSc1ccc(CC(C)N)cc1 (centres undefined) [MTA (4-)] | 5.24 |
| Cn1cc(-c2ccccc2)c(=O)c(-c2cccc(C(F)(F)F)c2)c1 [Fluridone] | 8.82 |
| CN(C)CCCC1(c2ccc(F)cc2)OCc2cc(C#N)ccc21 (centres undefined) [Citalopram] | 6.59 |
| COC(=O)COc1nc(Cl)c(Cl)cc1Cl [Triclopyr-methylester] | 10.4 |
| CC12CCC(=O)C=C1C1CC1C1C2CCC2(C)C1C1CC1C21CCC(=O)O1 (centres undefined) [Drospirenone] | 9.56 |
| CCNC(C)C(=O)c1ccc(C)cc1 (centres undefined) [MEC (4-)] | 4.74 |
| CCCCCCC(C)(C)c1ccc(C2CCCC(O)C2)c(O)c1 (centres undefined) [CP 47-497] | 13.1 |
| Cc1ccc2n[nH]nc2c1 [Benzotriazole- 5-Me] | 5.83 |
| Cc1ccccc1CC(C)N (centres undefined) [Amphetamine-2-methyl (ortetamine)] | 5.17 |
| CCN(CC)CCNC(=O)c1ccc(N)cc1 [Procainamide] | 2.83 |
| OCCN1CCN(CCC=C2c3ccccc3Sc3ccc(C(F)(F)F)cc32)CC1 [Flupentixol] | 10.2 |
| CN(C)c1ccc(C(c2ccccc2)c2ccc(N(C)C)cc2)cc1 [Leuco malachite green (LMG)] | 13.7 |
| CCCCNC(=O)n1c(NC(=O)OC)nc2ccccc21 [Benomyl (decomposed to Carbendazim)] | 5.46 |
| CC(C)(C)NCC(O)c1cc(Cl)c(N)c(C(F)(F)F)c1 (centres undefined) [Mabuterol] | 5.28 |
| N#Cc1ccc(CC(=NNC(=O)Nc2ccc(OC(F)(F)F)cc2)c2cccc(C(F)(F)F)c2)cc1 [Metaflumizone] | 12.1 |
| CCN(CC)C(=O)C1C=C2c3cccc4[nH]cc(c34)CC2NC1 (centres undefined) [LSD-Nor] | 5.56 |
| O=C(NCc1ccccc1)c1cn(CCCCCF)c2ccccc12 [SDB-006-5F] | 10 |
| COP(=S)(NC(C)C)Oc1ccccc1C(=O)OC(C)C (centres undefined) [Isofenphos-methyl] | 11.7 |
| CN1CCC23c4c5ccc(O)c4OC2C(=O)CCC3(O)C1C5 (centres undefined) [Oxymorphone] | 2.75 |
| CCOC(=O)N(C)C(=O)CSP(=S)(OCC)OCC [Mecarbam] | 10.2 |
| CN1CCN(CC(=O)N2c3ccccc3C(=O)Nc3cccnc32)CC1 [Pirenzepine] | 4.11 |
| CCOC(=O)c1cn2nc(OP(=S)(OCC)OCC)cc2nc1C [Pyrazophos] | 11.4 |

| SMILES | LC retention time [min] |
| --- | --- |
| Cc1cc(C)nc(NS(=O)(=O)c2ccc(N)cc2)n1 [Sulfadimidine (Sulfamethazine)] | 4.31 |
| CCON=C(OC(=O)c1ccccc1)c1c(OC)ccc(Cl)c1OC [Benzoximate] | 11.3 |
| CCCCCn1cc(C(=O)Nc2ccccc2)c2ccccc21 [SDB-006 N-phenyl] | 11.3 |
| CCCCCn1cc(C(=O)Cc2ccccc2OC)c2ccccc21 [JWH-250] | 11.8 |
| CC1(C)C(C(=O)c2nn(CCCCCF)c3ccccc23)C1(C)C [FAB-144] | 12.7 |
| CCCCCn1cc(C(=O)NC23CC4CC(CC(C4)C2)C3)c2ccccc21 [APICA] | 13.2 |
| COC(=O)c1cccc(C)c1S(=O)(=O)NC(=O)Nc1nc(OCC(F)(F)F)nc(N(C)C)n1 [Triflusulfuron-methyl] | 9.22 |
| O=C(c1ccc(Cl)cc1)c1ccc(Cl)cc1 [Benzophenone-p.p-Dichloro] | 11.9 |
| CNC(=O)ON=CC(C)(C)S(C)(=O)=O [Aldicarb-sulfone (Aldoxycarb)] | 3.75 |
| COCCC(N)C(=O)O (centres undefined) [AMB] | 11.8 |
| NC(=O)c1ccc(N)cc1 [4-Aminobenzamide] | 2.37 |
| CC1C(c2ccc(Cl)cc2)SC(=O)N1C(=O)NC1CCCCC1 (centres undefined) [Hexythiazox] | 12.6 |
| NC(CO)C(=O)NNCc1ccc(O)c(O)c1O (centres undefined) [Benserazide] | 1.38 |
| COc1ccc2c(c1)C13CCCCC1C(C2)N(C)CC3 (centres undefined) [Dextromethorphan] | 6.51 |
| C#CC(C)(C)NC(=O)c1cc(Cl)cc(Cl)c1 [Propyzamide (Pronamide)] | 9.69 |
| CC1CCC2(OC1)OC1CC3C4CC=C5CC(O)CCC5(C)C4CCC3(C)C1C2C (centres undefined) [Diosgenin] | 15.1 |
| CC(C)(C)C(O)(CCc1ccc(Cl)cc1)Cn1cncn1 (centres undefined) [Tebuconazole] | 10.9 |
| Cc1ncc2n1-c1ccc(Cl)cc1C(c1ccccc1F)=NC2 [Midazolam] | 8.63 |
| CCNC(=O)c1ccc(OC)cc1 [N-ethyl-4-methoxybenzamide] | 5.59 |
| COP(=S)(OC)Oc1ccc(S(C)(=O)=O)c(C)c1 [Fenthion-sulfon] | 7.57 |
